Source: patent US20260022143A1, “Cyclic Peptide Inhibitors of IL-23” (JANSSEN PHARMACEUTICA NV, priority 2022, published 2026)
Starred links: 1 amine or outer side, 2 acyl side, 3 side chain; linkers in the order of their positions; H or OH if unused. Positions of bridges follow the written chain, without caps; N, C: chain ends. Non-standard residues stand in square brackets, D forms with d. Residues, ends and D or L forms follow the SMILES beside them. Groups on a side chain read outwards from the residue. *: point of attachment. X80 = COCC[N+](C)(C)CCCCc1cn(-c2ccc(C[C@H](N[*:1])C(=O)[*:2])cc2)nn1; X51 = C[N+](C)(C)CCCc1cn(-c2ccc(C[C@H](N[*:1])C(=O)[*:2])cc2)nn1; Me3N+(CH2)2O(CH2)2O(CH2)2CO = C[N+](C)(C)CCOCCOCCC(=O)*; Trp(7-Me) = Cc1cccc2c(C[C@H](N)C(=O)O)c[nH]c12; Lys(Me3) = C[N+](C)(C)CCCC[C@H](N)C(=O)O; γGlu = O=C(O)[C@H](CCC(=O)[*:2])N[*:1]; 2Nal = N[C@@H](Cc1ccc2ccccc2c1)C(=O)O; 3Pal = N[C@@H](Cc1cccnc1)C(=O)O; Myristoyl = CCCCCCCCCCCCCC(=O)*; Lys(Me) = CNCCCC[C@H](N)C(=O)O; Chg = N[C@H](C(=O)O)C1CCCCC1; NMeK = CN[C@@H](CCCCN)C(=O)O; Pen = CC(C)(S)[C@H](N)C(=O)O; Lauroyl = CCCCCCCCCCCC(=O)*; Thp = NC1(C(=O)O)CCOCC1; X3 = C[N+](C)(C)CCCCC*; AEEA = NCCOCCOCC(=O)O; Me2NCH2CH2 = CN(C)CC*; Sar = CNCC(=O)O

Test: Exposed Polar Surface Area (EPSA)
Type: physicochemical
Conditions: SFC on Chirex 3014 column; sample 1 mM DMSO stock; read-out: EPSA
Procedure, shortened: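 Polarity measured by SFC on a Chirex 3014 column (35 °C, 4 mL/min) with methanol/ammonium formate in CO2 as gradient eluent. Retention times were normalised to EPSA (Å^2) against eight reference compounds.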

## CC(=O)N(C)CCCC[C@@H]1NC(=O)[C@H](Cc2c[nH]c3c(C)cccc23)NC(=O)[C@H]([C@@H](C)O)NC(=O)[C@H](CC(=O)N(C)C)NC(=O)[C@@H](NC(=O)CCOCCOCC[N+](C)(C)C)C(C)(C)SSC(C)(C)[C@@H](C(=O)N[C@@H](Cc2ccc(OCCCCC[N+](C)(C)C)cc2)C(=O)N[C@@H](Cc2ccc3ccccc3c2)C(=O)NC2(C(=O)N[C@@H](C)C(=O)N[C@@H](CC(N)=O)C(=O)N[C@@H](Cc3cccnc3)C(=O)N(C)CC(=O)N(C)C)CCOCC2)NC1=O [compound 316, cPEG3aCO-Pen(3)-N(N(Me)2)-T-7MeW-K(NMeAc)-Pen(3)-TMAPF-2Nal-THP-A-N-3Pya-Sar-CON(Me)2] ({Me3N+(CH2)2O(CH2)2O(CH2)2CO}-[Pen]D(NMe2)T[Trp(7-Me)][Lys(Me)](Ac)[Pen]Y(X3)[2Nal][Thp]AN[3Pal][Sar]-NMe2; disulfide 1-6)
  EPSA: 154 A^2

## CC(=O)NCCCC[C@@H]1NC(=O)[C@H](Cc2c[nH]c3c(C)cccc23)NC(=O)[C@H]([C@@H](C)O)NC(=O)[C@H](CC(N)=O)NC(=O)[C@@H](NC(=O)CCOCCOCC[N+](C)(C)C)C(C)(C)SSC(C)(C)[C@@H](C(=O)N[C@@H](Cc2ccc(OCCCCC[N+](C)(C)C)cc2)C(=O)N[C@@H](Cc2ccc3ccccc3c2)C(=O)NC2(C(=O)N[C@@H](C)C(=O)N[C@@H](CC(N)=O)C(=O)N[C@@H](Cc3cccnc3)C(=O)N(C)CC(=O)N(C)C)CCOCC2)NC1=O [compound 317, cPEG3aCO-Pen(3)-N-T-7MeW-K(Ac)-Pen(3)-TMAPF-2Nal-THP-A-N-3Pya-Sar-CON(Me)2] ({Me3N+(CH2)2O(CH2)2O(CH2)2CO}-[Pen]NT[Trp(7-Me)]K(Ac)[Pen]Y(X3)[2Nal][Thp]AN[3Pal][Sar]-NMe2; disulfide 1-6)
  EPSA: 158 A^2

## CC(=O)N(C)CCCC[C@@H]1NC(=O)[C@H](Cc2c[nH]c3c(C)cccc23)NC(=O)[C@H]([C@@H](C)O)NC(=O)[C@H](CC(=O)N(C)C)NC(=O)[C@@H](NC(=O)CCOCCOCC[N+](C)(C)C)C(C)(C)SSC(C)(C)[C@@H](C(=O)N[C@@H](Cc2ccc(OCCN(C)C)cc2)C(=O)N[C@@H](Cc2ccc3ccccc3c2)C(=O)NC2(C(=O)N[C@@H](CCCCN(C)C(C)=O)C(=O)N[C@@H](CC(N)=O)C(=O)N[C@@H](Cc3cccnc3)C(=O)N(C)CC(=O)N(C)C)CCOCC2)NC1=O [compound 321, cPEG3aCO-Pen(3)-N(N(Me)2)-T-7MeW-K(NMeAc)-Pen(3)-AEF(N(Me)2)-2Nal-THP-K(NMeAc)-N-3Pya-Sar-CON(Me)2] ({Me3N+(CH2)2O(CH2)2O(CH2)2CO}-[Pen]D(NMe2)T[Trp(7-Me)][Lys(Me)](Ac)[Pen]Y(Me2NCH2CH2)[2Nal][Thp][Lys(Me)](Ac)N[3Pal][Sar]-NMe2; disulfide 1-6)
  EPSA: 153 A^2

## CC(=O)N(C)CCCC[C@H](NC(=O)C1(NC(=O)[C@H](Cc2ccc3ccccc3c2)NC(=O)[C@H](Cc2ccc(OCCCCC[N+](C)(C)C)cc2)NC(=O)[C@H]2NC(=O)[C@H](CCCC[N+](C)(C)C)NC(=O)[C@H](Cc3c[nH]c4c(C)cccc34)NC(=O)[C@H]([C@@H](C)O)NC(=O)[C@H](CC(=O)N(C)C)NC(=O)[C@@H](NC(=O)CCOCCOCC[N+](C)(C)C)C(C)(C)SSC2(C)C)CCOCC1)C(=O)N[C@@H](CC(N)=O)C(=O)N[C@@H](Cc1cccnc1)C(=O)N(C)CC(=O)N(C)C [compound 329, cPEG3aCO-Pen(3)-N(N(Me)2)-T-7MeW-K(Me)3-Pen(3)-TMAPF-2Nal-THP-K(NMeAc)-N-3Pya-Sar-CON(Me)2] ({Me3N+(CH2)2O(CH2)2O(CH2)2CO}-[Pen]D(NMe2)T[Trp(7-Me)][Lys(Me3)][Pen]Y(X3)[2Nal][Thp][Lys(Me)](Ac)N[3Pal][Sar]-NMe2; disulfide 1-6)
  EPSA: 155 A^2

## CC(=O)N(C)CCCC[C@@H]1NC(=O)[C@H](Cc2c[nH]c3c(C)cccc23)NC(=O)[C@H]([C@@H](C)O)NC(=O)[C@H](CC(=O)N(C)C)NC(=O)[C@@H](NC(=O)CCOCCOCC[N+](C)(C)C)C(C)(C)SSC(C)(C)[C@@H](C(=O)N[C@@H](Cc2ccc(-n3cc(CCC[N+](C)(C)C)nn3)cc2)C(=O)N[C@@H](Cc2ccc3ccccc3c2)C(=O)NC2(C(=O)N[C@@H](CCCCN(C)C(C)=O)C(=O)N[C@@H](CC(N)=O)C(=O)N[C@@H](Cc3cccnc3)C(=O)N(C)CC(=O)N(C)C)CCOCC2)NC1=O [compound 334, cPEG3aCO-Pen(3)-N(N(Me)2)-T-7MeW-K(NMeAc)-Pen(3)-F(4TzlTMA3)-2Nal-THP-K(NMeAc)-N-3Pya-Sar-CON(Me)2] ({Me3N+(CH2)2O(CH2)2O(CH2)2CO}-[Pen]D(NMe2)T[Trp(7-Me)][Lys(Me)](Ac)[Pen][X51][2Nal][Thp][Lys(Me)](Ac)N[3Pal][Sar]-NMe2; disulfide 1-6 (inferred))
  EPSA: 155 A^2

## COCC[N+](C)(C)CCCCc1cn(-c2ccc(C[C@H](NC(=O)[C@H]3NC(=O)[C@H](CCCCN(C)C(C)=O)NC(=O)[C@H](Cc4c[nH]c5c(C)cccc45)NC(=O)[C@H]([C@@H](C)O)NC(=O)[C@H](CC(=O)N(C)C)NC(=O)[C@@H](NC(=O)CCOCCOCC[N+](C)(C)C)C(C)(C)SSC3(C)C)C(=O)N[C@@H](Cc3ccc4ccccc4c3)C(=O)NC3(C(=O)N[C@@H](CCCCN(C)C(C)=O)C(=O)N[C@@H](CC(N)=O)C(=O)N[C@@H](Cc4cccnc4)C(=O)N(C)CC(=O)N(C)C)CCOCC3)cc2)nn1 [compound 337, cPEG3aCO-Pen(3)-N(N(Me)2)-T-7MeW-K(NMeAc)-Pen(3)-F(4TzlDMA4mPEG)-2Nal-THP-K(NMeAc)-N-3Pya-Sar-CON(Me)2] ({Me3N+(CH2)2O(CH2)2O(CH2)2CO}-[Pen]D(NMe2)T[Trp(7-Me)][Lys(Me)](Ac)[Pen][X80][2Nal][Thp][Lys(Me)](Ac)N[3Pal][Sar]-NMe2; disulfide 1-6)
  EPSA: 152 A^2

## CC(=O)N(C)CCCC[C@@H]1NC(=O)[C@H](Cc2c[nH]c3c(C)cccc23)NC(=O)[C@H]([C@@H](C)O)NC(=O)[C@H](CC(=O)N(C)C)NC(=O)[C@@H](NC(=O)CCOCCOCC[N+](C)(C)C)C(C)(C)SSC(C)(C)[C@@H](C(=O)N[C@@H](Cc2ccc(OCCCCC[N+](C)(C)C)cc2)C(=O)N[C@@H](Cc2ccc3ccccc3c2)C(=O)N[C@H](C(=O)N[C@@H](CCCCN(C)C(C)=O)C(=O)N[C@@H](CC(N)=O)C(=O)N[C@@H](Cc2cccnc2)C(=O)N(C)CC(=O)N(C)C)C2CCCCC2)NC1=O [compound 340, cPEG3aCO-Pen(3)-N(N(Me)2)-T-7MeW-K(NMeAc)-Pen(3)-TMAPF-2Nal-Chg-K(NMeAc)-N-3Pya-Sar-CON(Me)2] ({Me3N+(CH2)2O(CH2)2O(CH2)2CO}-[Pen]D(NMe2)T[Trp(7-Me)][Lys(Me)](Ac)[Pen]Y(X3)[2Nal][Chg][Lys(Me)](Ac)N[3Pal][Sar]-NMe2; disulfide 1-6)
  EPSA: 155 A^2

## CC(=O)N[C@H](CCCNC(=N)N)C(=O)N[C@@H]1C(=O)N[C@@H](CC(=O)N(C)C)C(=O)N[C@@H]([C@@H](C)O)C(=O)N[C@@H](Cc2c[nH]c3c(C)cccc23)C(=O)N[C@@H](CCCCN(C)C(C)=O)C(=O)N[C@H](C(=O)N[C@@H](Cc2ccc(OCCCCC[N+](C)(C)C)cc2)C(=O)N[C@@H](Cc2ccc3ccccc3c2)C(=O)NC2(C(=O)N[C@@H](CCCCN(C)C(C)=O)C(=O)N[C@@H](CC(N)=O)C(=O)N[C@@H](Cc3cccnc3)C(=O)N(C)CC(=O)N(C)C)CCOCC2)C(C)(C)SSC1(C)C [compound 345, MeCO-r-Pen(3)-N(N(Me)2)-T-7MeW-K(NMeAc)-Pen(3)-TMAPF-2Nal-THP-K(NMeAc)-N-3Pya-Sar-CON(Me)2] (Ac-[dR][Pen]D(NMe2)T[Trp(7-Me)][Lys(Me)](Ac)[Pen]Y(X3)[2Nal][Thp][Lys(Me)](Ac)N[3Pal][Sar]-NMe2; disulfide 2-7)
  EPSA: 162 A^2

## CCCCCCCCCCCCCC(=O)N[C@@H](CCC(=O)NCCOCCOCC(=O)NCCOCCOCC(=O)NCCCC[C@@H](NC(=O)CCOCCOCC[N+](C)(C)C)C(=O)N[C@@H]1C(=O)N[C@@H](CC(=O)N(C)C)C(=O)N[C@@H]([C@@H](C)O)C(=O)N[C@@H](Cc2c[nH]c3c(C)cccc23)C(=O)N[C@@H](CCCCNC(C)=O)C(=O)N[C@H](C(=O)N[C@@H](Cc2ccc(OCCCCC[N+](C)(C)C)cc2)C(=O)N[C@@H](Cc2ccc3ccccc3c2)C(=O)NC2(C(=O)N[C@@H](CCCCN(C)C(C)=O)C(=O)N[C@@H](CC(N)=O)C(=O)N[C@@H](Cc3cccnc3)C(=O)N(C)[C@@H](CCCCNC(=O)COCCOCCNC(=O)COCCOCCNC(=O)CC[C@H](NC(=O)CCCCCCCCCCCCC)C(=O)O)C(N)=O)CCOCC2)C(C)(C)SSC1(C)C)C(=O)O [compound 347, cPEG3aCO-k(PEG2PEG2gEC14)-Pen(3)-N(N(Me)2)-T-7MeW-K(Ac)-Pen(3)-TMAPF-2Nal-THP-K(NMeac)-N-3Pya-NMeK(PEG2PEG2gEC14)-CONH2] ({Me3N+(CH2)2O(CH2)2O(CH2)2CO}-[dK]([AEEA-AEEA-γGlu-Myristoyl])[Pen]D(NMe2)T[Trp(7-Me)]K(Ac)[Pen]Y(X3)[2Nal][Thp][Lys(Me)](Ac)N[3Pal][NMeK]([AEEA-AEEA-γGlu-Myristoyl])-NH2; disulfide 2-7)
  EPSA: 187 A^2

## CCCCCCCCCCCC(=O)N[C@@H](CCC(=O)NCCOCCOCC(=O)NCCOCCOCC(=O)NCCCC[C@@H](NC(=O)CCOCCOCC[N+](C)(C)C)C(=O)N[C@@H]1C(=O)N[C@@H](CC(=O)N(C)C)C(=O)N[C@@H]([C@@H](C)O)C(=O)N[C@@H](Cc2c[nH]c3c(C)cccc23)C(=O)N[C@@H](CCCCNC(C)=O)C(=O)N[C@H](C(=O)N[C@@H](Cc2ccc(OCCCCC[N+](C)(C)C)cc2)C(=O)N[C@@H](Cc2ccc3ccccc3c2)C(=O)NC2(C(=O)N[C@@H](CCCCN(C)C(C)=O)C(=O)N[C@@H](CC(N)=O)C(=O)N[C@@H](Cc3cccnc3)C(=O)N(C)[C@@H](CCCCNC(=O)COCCOCCNC(=O)COCCOCCNC(=O)CC[C@H](NC(=O)CCCCCCCCCCC)C(=O)O)C(N)=O)CCOCC2)C(C)(C)SSC1(C)C)C(=O)O [compound 348, cPEG3aCO-k(PEG2PEG2gEC12)-Pen(3)-N(N(Me)2)-T-7MeW-K(Ac)-Pen(3)-TMAPF-2Nal-THP-K(NMeac)-N-3Pya-NMeK(PEG2PEG2gEC12)-CONH2] ({Me3N+(CH2)2O(CH2)2O(CH2)2CO}-[dK]([AEEA-AEEA-γGlu-Lauroyl])[Pen]D(NMe2)T[Trp(7-Me)]K(Ac)[Pen]Y(X3)[2Nal][Thp][Lys(Me)](Ac)N[3Pal][NMeK]([AEEA-AEEA-γGlu-Lauroyl])-NH2; disulfide 2-7)
  EPSA: 184 A^2
